Laboratory results published in US6962713B2, “Spot-on formulations for combating parasites” (Merial, priority 1919, dated 2005).

Test: Plasma kinetics of ivermectin after spot-on application at different doses in combination with fipronil to dogs
Type: in vivo, dog
Description: This study was undertaken in order to assess the linearity of the percutaneous passage of ivermectin after spot-on application of different doses of ivermectin (100, 250, 500 and 1000 μg.kg^−1) in combination with fipronil (10 mg.kg^−1) to the dog. Furthermore, the possibility of control both heartworms and gastro-intestinal nematodes was evaluated.
Twelve male Beagle dogs (allocated into 4 groups of 3 animals were applied spot-on formulations combining ivermectin (0.1%, 0.25%, 0.5% and 1%) and fipronil (10%) at a dose rate of 0.1 ml.kg^−1 (i.e. 100, 250, 500 and 1000 μg.kg^−1 of ivermectin and 10 mg.kg^−1 of fipronil).
The formulations are as follows: […]
The formulations were applied at one spot onto the skin between the shoulder blades.
Blood samples were collected at intervals up to 56 days post treatment.
The determination of ivermectin was carried out by HPLC after an automated solid/liquid extraction, using fluorescence detection, with limit of quantification of 100 pg.ml^−1. The determination of fipronil and its sulfone metabolite (RM1602) was carried out by HPLC with UV detection, with a limit of quantification of 20 ng.ml^−1 for fipronil and RM1602. Both methods were validated in terms of specificity, extraction recovery, linearity, precision and accuracy.

Compound: N#Cc1nn(-c2c(Cl)cc(C(F)(F)F)cc2Cl)c(N)c1S(=O)(=O)C(F)(F)F [RM1602]
- plasma concentrations compared with those usually observed in dogs treated at the same dose in previous studies (spot-on, fipronil 10 mg.kg^−1, dogs): significantly inferior

Compound: N#Cc1nn(-c2c(Cl)cc(C(F)(F)F)cc2Cl)c(N)c1[S+]([O-])C(F)(F)F (centres unmarked) [fipronil, 1-[2,6-Cl2-4-CF3 phenyl]-3-CN-4-[SO—CF3]-5-NH2 pyrazole]
- plasma concentrations compared with those usually observed in dogs treated at the same dose in previous studies (dog, in vivo): significantly inferior
